Experimental data as given in paper PMC8175350, “Drug repurposing screens identify chemical entities for the development of COVID-19 interventions” (Nature Communications, 2021).
Counter-ions that a name gives are not always drawn. Like-named read-outs stand apart in the source and are kept apart here.

Key:
Calu-3 cells [1] = test system: Calu-3 cells
SARS-CoV-2 [2] = assay: microbe, parasite or virus in culture; assay type: cell-based; conditions: for HeLa-ACE2 CoV-2 Sinf Average: curve-fit effect at infinite concentration; for Emax: Severe acute respiratory syndrome coronavirus 2, HeLa-ACE2, 24 h, read-out: HeLa-ACE2 CoV-2 Sinf Average
SARS-CoV-2 [3] = assay: microbe, parasite or virus in culture; assay type: cell-based; conditions: for Emax: Severe acute respiratory syndrome coronavirus 2, Calu-3, 48 h; for Calu-3 CoV-2 Sinf Average: curve-fit effect at infinite concentration
HeLa-ACE2 cells [4] = assay: cells; conditions: Homo sapiens
Calu-3 cells [5] = assay: cells; conditions: Homo sapiens
in vitro = conditions: human, Calu-3 uninfected cytotoxicity CC50 GeoMean (µM)
[6] = Uninfected HeLa-ACE2 24 h live/dead cytotoxicity counter screen; assay type: cell-based, human; conditions: human, uninfected HeLa-ACE2 cells
HeLa-ACE2 cells [7] = assay: as above; assay type: cell-based, human; conditions: for CC50: read-out: HeLa-ACE2 uninfected cytotoxicity CC50 GeoMean
HeLa-ACE2 cells [8] = conditions: for HeLa-ACE2 cell count Sinf Average: curve-fit effect at infinite concentration; for EC50: read-out: HeLa-ACE2 cell count EC50 GeoMean, unrounded geometric mean
Calu-3 cells [9] = assay: Uninfected Calu-3 48 h Cell-Titer Glo cytotoxicity counter screen
Calu-3 cells [10] = conditions: for Calu-3 cell count Sinf Average: curve-fit effect at infinite concentration; for EC50: read-out: Calu-3 cell count EC50 GeoMean
HepG2 [11] = conditions: human, 72 h
SARS-CoV-2 [12] = assay: microbe, parasite or virus in culture; assay type: cell-based; conditions: for EC50: read-out: HeLa-ACE2 TOA CoV-2 EC50 GeoMean
HeLa-ACE2 cells [13] = assay: Total cell count in the HeLa-ACE2 TOA assay; assay type: cell-based; conditions: Homo sapiens, HeLa-ACE2, read-out: HeLa-ACE2 TOA cell count EC50 GeoMean
Text: Supplement 41467_2021_23328_MOESM3_ESM.xlsx, sheet "Table S1" | column: HeLa-ACE2 TOA cell count

SARS-CoV-2 [14] = assay type: cell-based
HEK293T [15] = conditions: human, 72 h
[16] = ref [33]-[49], cited from earlier work
[17] = Uninfected Calu-3 48 h Cell-Titer Glo cytotoxicity counter screen; conditions: human, uninfected Calu-3 cells
HeLa-ACE2 cells [18] = assay: Total cell count in the HeLa-ACE2 TOA (time of addition) assay; assay type: cell-based, human; conditions: Homo sapiens, HeLa-ACE2; read-out: HeLa-ACE2 TOA cell count EC50 GeoMean
[19] = HEK293T 72 h CellTiter-Glo cytotoxicity; conditions: human, HEK293T cells
HEK293T [20] = assay: HEK293T 72 h CellTiter-Glo cytotoxicity; conditions: 72 h
[21] = HepG2 72 h CellTiter-Glo cytotoxicity; conditions: human, HepG2 cells
HepG2 [22] = assay: HepG2 72 h CellTiter-Glo cytotoxicity; conditions: 72 h
[23] = curve-fit effect at infinite concentration, average
[24] = unrounded geometric mean, read-out: HeLa-ACE2 CoV-2 EC50 GeoMean
[25] = unrounded geometric mean, read-out: Calu-3 CoV-2 EC50 GeoMean
[26] = curve plateau at infinite concentration

Compound: CC/C(=C(/c1ccc(/C=C/C(=O)O)cc1)c1ccc2[nH]ncc2c1)c1ccc(F)cc1Cl [ARN-810]
- uninfected Calu-3 CC50 [μM] (Calu-3 cells [1]): > 23.843 ×÷ 1.22 (n=3) μM
- Calu-3 uninfected cytotoxicity Sinf Average (%) (Calu-3 cells [1]; human, 48 h): -89%
- EC50 (SARS-CoV-2 [2]; Severe acute respiratory syndrome coronavirus 2, HeLa-ACE2, geometric mean of replicates, read-out: HeLa-ACE2 CoV-2 EC50 GeoMean): > 9.59 µM
- Emax (SARS-CoV-2 [3]; Sinf average of the curves, read-out: Calu-3 CoV-2 Sinf Average (%)): 71%
- EC50 (SARS-CoV-2 [3]; Severe acute respiratory syndrome coronavirus 2, Calu-3, geometric mean of replicates, read-out: Calu-3 CoV-2 EC50 GeoMean): 1.1 µM
- EC50 (HeLa-ACE2 cells [4]; HeLa-ACE2, read-out: HeLa-ACE2 cell count EC50 GeoMean (µM), geometric mean of replicates): > 9.59 µM
- Emax (Calu-3 cells [5]; Calu-3, 48 h, read-out: Calu-3 cell count Sinf Average (%)): 79%
- EC50 (Calu-3 cells [5]; Calu-3, read-out: Calu-3 cell count EC50 GeoMean (µM), geometric mean of replicates): > 3.06 µM
- CC50 at 48 h (in vitro): > 23.8 µM
- CC50 at 24 h ([6]; geometric mean of replicates, read-out: HeLa-ACE2 uninfected cytotoxicity CC50 GeoMean): 11 µM
- HeLa-ACE2 uninfected cytotoxicity Sinf Average (%) (HeLa-ACE2 cells [7]; Sinf average of the curves): -99%
- HeLa-ACE2 cell count Sinf Average (%) (HeLa-ACE2 cells [8]; Sinf average of the curves): -100%

Compound: COc1ccc(C[C@H]2NC[C@H](O)[C@H]2OC(C)=O)cc1 [Anisomycin]
- Calu-3 uninfected cytotoxicity Sinf Average (Calu-3 cells [9]; [23]): -66%
- HeLa-ACE2 CoV-2 Sinf Average (SARS-CoV-2 [2]): -102%
- EC50 (SARS-CoV-2 [2]; [24]): 0.0664 µM
- Calu-3 CoV-2 Sinf Average (SARS-CoV-2 [3]): -98%
- EC50 (SARS-CoV-2 [3]; [25]): 0.127 µM
- HeLa-ACE2 uninfected cytotoxicity Sinf Average (HeLa-ACE2 cells [7]; [23]): -98%
- Calu-3 cell count Sinf Average (Calu-3 cells [10]): 37%
- EC50 (Calu-3 cells [10]; unrounded geometric mean): > 2.46 µM
- HeLa-ACE2 cell count Sinf Average (HeLa-ACE2 cells [8]): -103%
- EC50 (HeLa-ACE2 cells [8]): 0.636 µM

Compound: Cc1cccc(/C=N/Nc2cc(N3CCOCC3)nc(OCCc3ccccn3)n2)c1 [Apilimod - control]
- HepG2 72-hour cytotoxicity Sinf Average (HepG2 [11]): -69%
- Emax (SARS-CoV-2 [2]; [26]): 95%
- EC50 (SARS-CoV-2 [2]; read-out: HeLa-ACE2 CoV-2 EC50 GeoMean): 0.011 µM
- EC50 (SARS-CoV-2 [3]; read-out: Calu-3 CoV-2 EC50 GeoMean): 1.87 µM
- EC50 (SARS-CoV-2 [12]): > 2.4 µM
- EC50 (HeLa-ACE2 cells [13]): > 2.4 µM
- HeLa-ACE2 synergy score with remdesivi [δ] (SARS-CoV-2 [14]; combination with remdesivir, synergy score δ): 3.568
- HEK293T 72-hour cytotoxicty Sinf Average (HEK293T [15]): -79%
- HeLa-ACE2 uninfected cytotoxicity Sinf Average (HeLa-ACE2 cells [7]; [26]): -100%
- CC50 (HeLa-ACE2 cells [7]): > 11.5 µM
- EC50 (Calu-3 cells [10]): > 2.5 µM

Compound: CCCCN(CCCC)CCC(O)c1cc2c(Cl)cc(Cl)cc2c2cc(C(F)(F)F)ccc12 (stereo not shown) [Halofantrine HCl]
- Approx. t1/2 ([16]; human): 58 h
- Cmax ([16]; read-out: Approx. Cmax, human oral): 1000 nM
- CC50 at 48 h ([17]; Calu-3 Uninf. cells CC50 (µM), reconfirmed hits): > 22.6 µM
- CC50 at 48 h ([17]; Calu-3 uninfected cytotoxicity CC50 GeoMean): > 22.6 µM
- Calu-3 uninfected cytotoxicity Sinf Average (Calu-3 cells [9]; human, uninfected Calu-3 cells, 48 h): -100%
- Emax (SARS-CoV-2 [2]): 100%
- EC50 (SARS-CoV-2 [2]; Severe acute respiratory syndrome coronavirus 2, HeLa-ACE2, detail column, read-out: HeLa-ACE2 CoV-2 EC50 GeoMean): 1.16 µM
- EC50 (SARS-CoV-2 [2]; Severe acute respiratory syndrome coronavirus 2, HeLa-ACE2, reconfirmed hits, read-out: HeLa-ACE2 SARS-CoV-2 EC50): 0.33 µM
- HeLa-ACE2 SI (SARS-CoV-2 [2]; selectivity index, uninfected HeLa-ACE2 CC50 / SARS-CoV-2 EC50): > 20.66
- Emax (SARS-CoV-2 [3]; read-out: Calu-3 CoV-2 Sinf Average): 100%
- EC50 (SARS-CoV-2 [3]; Severe acute respiratory syndrome coronavirus 2, Calu-3, reconfirmed hits, read-out: Calu-3 SARS-CoV-2 EC50): > 8.47 µM
- Calu-3 SI (SARS-CoV-2 [3]; selectivity index, uninfected Calu-3 CC50 / SARS-CoV-2 EC50): > 2.67
- EC50 (HeLa-ACE2 cells [18]): > 9.61 µM
- TOA:HeLa-ACE2 EC50 Ratio (SARS-CoV-2 [12]): 3.833
- Emax (SARS-CoV-2 [12]; Severe acute respiratory syndrome coronavirus 2, HeLa-ACE2, 10 h, read-out: HeLa-ACE2 TOA CoV-2 Sinf Average): 100%
- EC50 (SARS-CoV-2 [12]; Severe acute respiratory syndrome coronavirus 2, HeLa-ACE2): 4.44 µM
- Emax (HeLa-ACE2 cells [4]; HeLa-ACE2, 24 h, read-out: HeLa-ACE2 cell count Sinf Average): -39%
- EC50 (HeLa-ACE2 cells [4]; HeLa-ACE2, read-out: HeLa-ACE2 cell count EC50 GeoMean): > 6.19 µM
- Synergy score with remdesivir (δ) (SARS-CoV-2 [14]; HeLa-ACE2): −3.51
- HeLa-ACE2 synergy score with remdesivi (SARS-CoV-2 [14]; combination with remdesivir): -3.509 δ
- CC50 at 72 h [19]: 25.8 µM
- HEK293T 72-hour cytotoxicty Sinf Average (HEK293T [20]): -100%
- EC50 (Calu-3 cells [5]; Calu-3, read-out: Calu-3 cell count EC50 GeoMean): > 9.98 µM
- CC50 at 72 h [21]: 30.5 µM
- HepG2 72-hour cytotoxicity Sinf Average (HepG2 [22]): -100%
- CC50 at 24 h ([6]; reconfirmed hits, read-out: HeLa-ACE2 Uninf. cells CC50): 18.7 µM
- CC50 at 24 h ([6]; read-out: HeLa-ACE2 uninfected cytotoxicity CC50 GeoMean): > 23.9 µM
- HeLa-ACE2 uninfected cytotoxicity Sinf Average (HeLa-ACE2 cells [7]; human, uninfected HeLa-ACE2 cells, 24 h): -100%

Compound: NS(=O)(=O)c1ccc(N2N=C(C(F)(F)F)CC2c2c[nH]c3c(Cl)cccc23)cc1 (stereo not shown) [ON-09310]
- Calu-3 uninfected cytotoxicity Sinf Average (Calu-3 cells [9]; [23]): -97%
- CC50 (Calu-3 cells [9]; read-out: Calu-3 uninfected cytotoxicity CC50 GeoMean, unrounded geometric mean): 16.9 µM
- HeLa-ACE2 CoV-2 Sinf Average (SARS-CoV-2 [2]): -100%
- EC50 (SARS-CoV-2 [2]; [24]): 3.72 µM
- Calu-3 CoV-2 Sinf Average (SARS-CoV-2 [3]): -95%
- EC50 (SARS-CoV-2 [3]; [25]): 1.81 µM
- HeLa-ACE2 uninfected cytotoxicity Sinf Average (HeLa-ACE2 cells [7]; [23]): -103%
- CC50 (HeLa-ACE2 cells [7]; unrounded geometric mean): 8.2 µM
- Calu-3 cell count Sinf Average (Calu-3 cells [10]): 100%
- EC50 (Calu-3 cells [10]; unrounded geometric mean): > 8.32 µM
- HeLa-ACE2 cell count Sinf Average (HeLa-ACE2 cells [8]): -100%
- EC50 (HeLa-ACE2 cells [8]): > 9.33 µM
